Laboratory results reported in the supplement of paper PMC10307832.

Legend:
Assay in all cases: relative viability (nuclei count vs DMSO), 5 days (fraction); higher = more cells survive
VX-11e + Decitabine = compound: CC1=CN=C(N=C1C2=CNC(=C2)C(=O)N[C@H](CO)C3=CC(=CC=C3)Cl)NC4=C(C=C(C=C4)F)Cl [VX-11e] + Nc1ncn([C@H]2C[C@H](O)[C@@H](CO)O2)c(=O)n1 [Decitabine] (partner 2 µM)
Summary of the method: (§1)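 Lung cancer cell lines in 1536-well plates were dosed by pin tool the day after seeding, either with one drug alone or with a fixed anchor-drug dose plus five library-drug doses (not always all listed) in √10 steps. After 5 days, cells were fixed and their nuclei stained in one step (final 0.05% Triton X-100, 1% formaldehyde, 1 ug/ml Hoechst), then counted on 4× images. Relative viability is the nuclei count in treated wells divided by that in vehicle wells. Values are medians of duplicate plates.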

VX-11e + Alpelisib = compound: CC1=CN=C(N=C1C2=CNC(=C2)C(=O)N[C@H](CO)C3=CC(=CC=C3)Cl)NC4=C(C=C(C=C4)F)Cl [VX-11e] + Cc1nc(NC(=O)N2CCC[C@H]2C(N)=O)sc1-c1ccnc(C(C)(C)C(F)(F)F)c1 [Alpelisib] (partner 2 µM)
Summary of the method: as §1

VX-11e + Linsitinib = compound: CC1=CN=C(N=C1C2=CNC(=C2)C(=O)N[C@H](CO)C3=CC(=CC=C3)Cl)NC4=C(C=C(C=C4)F)Cl [VX-11e] + C[C@]1(O)C[C@@H](c2nc(-c3ccc4ccc(-c5ccccc5)nc4c3)c3c(N)nccn32)C1 [Linsitinib] (partner 1 µM)
Summary of the method: as §1

VX-11e + Pictilisib = compound: CC1=CN=C(N=C1C2=CNC(=C2)C(=O)N[C@H](CO)C3=CC(=CC=C3)Cl)NC4=C(C=C(C=C4)F)Cl [VX-11e] + CS(=O)(=O)N1CCN(Cc2cc3nc(-c4cccc5[nH]ncc45)nc(N4CCOCC4)c3s2)CC1 [Pictilisib] (partner 1 µM)
Summary of the method: as §1

Cell Line | relative viability (VX-11e + Decitabine; first compound 0.04 µM) | relative viability (VX-11e + Decitabine; first compound 0.1265 µM) | relative viability (VX-11e + Decitabine; first compound 0.4 µM) | relative viability (VX-11e + Decitabine; first compound 1.265 µM) | relative viability (VX-11e + Decitabine; first compound 4 µM) | relative viability (VX-11e + Alpelisib; first compound 0.04 µM) | relative viability (VX-11e + Alpelisib; first compound 0.1265 µM) | relative viability (VX-11e + Alpelisib; first compound 0.4 µM) | relative viability (VX-11e + Alpelisib; first compound 1.265 µM) | relative viability (VX-11e + Alpelisib; first compound 4 µM) | relative viability (VX-11e + Linsitinib; first compound 0.04 µM) | relative viability (VX-11e + Linsitinib; first compound 0.1265 µM) | relative viability (VX-11e + Linsitinib; first compound 0.4 µM) | relative viability (VX-11e + Linsitinib; first compound 1.265 µM) | relative viability (VX-11e + Linsitinib; first compound 4 µM) | relative viability (VX-11e + Pictilisib; first compound 0.04 µM) | relative viability (VX-11e + Pictilisib; first compound 0.1265 µM) | relative viability (VX-11e + Pictilisib; first compound 0.4 µM) | relative viability (VX-11e + Pictilisib; first compound 1.265 µM) | relative viability (VX-11e + Pictilisib; first compound 4 µM)
COR-L23 | 0.374 | 0.417 | 0.396 | 0.426 | 0.276 | 0.913 | 0.742 | 0.669 | 0.379 | 0.17 | 1.04 | 0.905 | 0.816 | 0.508 | 0.248 | 0.83 | 0.72 | 0.52 | 0.382 | 0.184
NCI-H1395 | 0.734 | 0.721 | – | 0.695 | 0.62 | 1.08 | 0.916 | 0.745 | 1.04 | 0.675 | 1.17 | 1.29 | 0.846 | 0.963 | 0.718 | 0.682 | 0.551 | 0.501 | 0.59 | 0.435
RERF-LC-KJ | 0.707 | 0.703 | 0.592 | 0.807 | 0.62 | 1.47 | 0.739 | – | 0.829 | 0.551 | 0.989 | 0.863 | 0.862 | 0.874 | 0.708 | 0.63 | 0.521 | 0.614 | 0.641 | 0.484
NCI-H1993 | – | 0.644 | 0.674 | 0.659 | 0.509 | – | 0.673 | – | 0.618 | 0.649 | – | 0.757 | – | 0.769 | 0.666 | – | 0.805 | – | 0.814 | 0.865
NCI-H2087 | 0.318 | 0.295 | – | 0.182 | 0.158 | 1.09 | 1.06 | 0.946 | 0.983 | 0.276 | 0.949 | 1.1 | 0.902 | 0.803 | 0.302 | 0.778 | 0.734 | 0.271 | 0.445 | 0.273
NCI-H520 | 0.539 | 0.533 | 0.492 | 0.668 | 0.476 | 0.919 | 0.939 | 0.863 | 0.982 | 0.619 | 0.948 | 0.898 | 0.827 | 1.06 | 0.69 | 0.267 | 0.276 | 0.34 | 0.274 | 0.336
NCI-H1648 | – | 0.584 | 0.491 | 0.654 | 0.42 | – | – | – | – | – | – | – | – | – | – | – | – | – | – | –
NCI-H23 | 0.279 | 0.312 | 0.306 | 0.284 | 0.22 | 0.575 | 0.53 | 0.435 | 0.384 | 0.242 | 0.48 | 0.52 | 0.37 | 0.378 | 0.271 | 0.35 | 0.437 | 0.176 | 0.31 | 0.19
LXF-289 | 0.364 | 0.376 | – | 0.386 | 0.406 | 1.05 | 0.962 | 0.961 | 0.942 | 0.695 | 0.995 | 0.88 | 0.958 | 0.801 | 0.686 | 0.785 | 0.754 | 0.66 | 0.686 | 0.333
HCC-44 | 0.995 | 0.896 | 0.939 | 0.904 | 1.06 | 0.796 | 0.766 | 0.716 | 0.614 | 0.355 | 0.697 | 0.619 | 0.686 | 0.657 | 0.523 | 0.539 | 0.552 | 0.628 | 0.359 | 0.163
EMC-BAC-2 | 1.02 | 0.958 | 0.653 | 1 | 0.588 | 0.731 | 0.662 | 0.687 | 0.618 | 0.534 | 0.831 | 0.74 | 0.743 | 0.712 | 0.602 | 0.468 | 0.488 | 0.516 | 0.432 | 0.337
NCI-H522 | 0.641 | 0.648 | 0.648 | 0.599 | 0.573 | – | – | – | – | – | – | – | – | – | – | – | – | – | – | –
NCI-H1792 | – | 0.493 | – | 0.619 | 0.328 | 0.799 | 0.631 | 0.649 | 0.628 | 0.202 | 0.706 | 0.488 | 0.681 | 0.484 | 0.137 | 0.299 | 0.2 | 0.319 | 0.27 | 0.0521
NCI-H838 | 0.44 | 0.428 | 0.447 | 0.474 | 0.524 | 1.06 | 0.989 | 0.952 | 1.02 | 0.824 | 1.06 | 0.933 | 0.96 | 0.887 | 0.79 | 0.333 | 0.435 | 0.266 | 0.424 | 0.292
LCLC-103H | 0.726 | 0.701 | 0.726 | 0.742 | 0.608 | 1.06 | 0.905 | 0.861 | 0.828 | 0.819 | 1.24 | 0.985 | 0.954 | 0.857 | 0.836 | 0.516 | 0.509 | 0.582 | 0.442 | 0.439
NCI-H2170 | 0.477 | 0.442 | 0.516 | 0.541 | 0.547 | 0.76 | 0.71 | 0.758 | 0.719 | 0.71 | – | – | – | – | – | 0.244 | 0.265 | 0.19 | 0.217 | 0.237
HOP-62 | 0.223 | 0.239 | 0.213 | 0.248 | 0.312 | 1.05 | 0.921 | 0.892 | 0.866 | 0.502 | 0.903 | 0.773 | 0.973 | 0.831 | 0.226 | 0.42 | 0.51 | 0.152 | 0.125 | 0.116
HCC-827 | 0.266 | 0.32 | 0.342 | 0.431 | 0.324 | 1.02 | 1.06 | 0.983 | 1.16 | 0.599 | 0.967 | 0.934 | 0.975 | 1.12 | 0.859 | 1.03 | 0.883 | 1.06 | 1.19 | 0.813
